Data from patent EP4000627A1, “TREATMENT OF ABDOMINAL AORTIC ANEURYSM AFTER ITS CLINICAL MANIFESTATION” (Fundacion Instituto De Investigacion Sanitaria Fundacion …, priority 2020, dated 2022).
Where a SMILES comes first, the peptide text is derived from it. Bridges are numbered along the chain shown (N, C = ends). [ ]: non-standard residue; d: D form. The star is where a group is joined. 1Nal = N[C@@H](Cc1cccc2ccccc12)C(=O)O; Acm = CC(=O)NC*

How the values were obtained:
[1] = tested on: mouse VSMC; test: cellular uptake of TAMRA-conjugated S1PS5 peptides (confocal microscopy); format: cell-based; details: for degraded in cells: at 24 hours, TAMRA fluorescence intensity; for efficient uptake after: quantification of peptide internalization by TAMRA fluorescence intensity
[2] = in vitro
Description: (§1) S1 and S1PS5 peptides derived from SOCS1 KIR domain (residues 53-68) conjugated with the cell penetrating sequences at N-terminal were synthesized by solid phase method following the Fmoc strategy, purified by preparative reverse phase-HPLC and lyophilized. Peptides were dissolved in 1% DMSO in saline solution (S1) and H2O (S1PS5), then filter-sterilized and stored at -80°C before use. For biodistribution studies, peptides were labelled with rhodamine or carboxytetramethylrhodamine (TAMRA) at N-terminal. For stability assays, peptides were incubated at 37°C with 25% foetal bovine serum (FBS). At selected times, 80 µL aliquots were taken, precipitated with 15% trichloroacetic acid, and further analysed by reverse phase HPLC with UV detector.

[3] = 24 hours post-injection
Description: as §1

CC(=O)NCSC[C@@H]1NC(=O)[C@H]([C@@H](C)O)NC(=O)[C@@H](NC(=O)CNC(=O)CNC(=O)[C@H](CCC(N)=O)NC(=O)[C@@H]2CCCN2C(=O)[C@@H]2CCCN2C(=O)[C@H](CCCNC(=N)N)NC(=O)[C@H](CCCNC(=N)N)NC(=O)[C@H](CCCNC(=N)N)NC(=O)[C@H](CCC(N)=O)NC(=O)[C@H](CCCNC(=N)N)NC(=O)[C@H](CCCNC(=N)N)NC(=O)[C@H](CCCCN)NC(=O)[C@H](CCCCN)NC(=O)[C@H](CCCNC(=N)N)NC(=O)CN)CC(=O)NCCCC[C@@H](C(=O)N[C@@H](Cc2c[nH]cn2)C(=O)O)NC(=O)[C@H](CCCNC(=N)N)NC(=O)[C@H](Cc2cccc3ccccc23)NC(=O)[C@H]([C@@H](C)O)NC(=O)[C@H](CCC(N)=O)NC(=O)[C@H](CCCNC(=N)N)NC1=O [internal cyclic S1PS5 Nal1, GRKKRRQRRRPPQGGDTCAcmRQTNal1RKH] (H-GRKKRRQRRRPPQGGDTC(Acm)RQT[1Nal]RKH-OH; lactam 16-24)
degraded in cells [1]: 40%
efficient uptake after [1]: ~2 h
metabolised at 20 h ([2]; 25% foetal bovine serum): ~20%
remaining at 42 h ([2]; 25% foetal bovine serum): ~40%
localization in aortic tissue (confocal analysis) [3]: detected

CC(=O)NCSC[C@@H]1NC(=O)[C@H]([C@@H](C)O)NC(=O)[C@@H](NC(=O)CNC(=O)CNC(=O)[C@H](CCC(N)=O)NC(=O)[C@@H]2CCCN2C(=O)[C@@H]2CCCN2C(=O)[C@H](CCCNC(=N)N)NC(=O)[C@H](CCCNC(=N)N)NC(=O)[C@H](CCCNC(=N)N)NC(=O)[C@H](CCC(N)=O)NC(=O)[C@H](CCCNC(=N)N)NC(=O)[C@H](CCCNC(=N)N)NC(=O)[C@H](CCCCN)NC(=O)[C@H](CCCCN)NC(=O)[C@H](CCCNC(=N)N)NC(=O)CN)CC(=O)NCCCC[C@@H](C(=O)N[C@@H](Cc2c[nH]cn2)C(=O)O)NC(=O)[C@H](CCCNC(=N)N)NC(=O)[C@H](Cc2ccccc2)NC(=O)[C@H]([C@@H](C)O)NC(=O)[C@H](CCC(N)=O)NC(=O)[C@H](CCCNC(=N)N)NC1=O [internal cyclic S1PS5, GRKKRRQRRRPPQGGDTCAcmRQTFRKH] (H-GRKKRRQRRRPPQGGDTC(Acm)RQTFRKH-OH; lactam 16-24)
degraded in cells [1]: almost completely degraded
efficient uptake after [1]: ~2 h
metabolised at 20 h ([2]; 25% foetal bovine serum): ~40%

CC(=O)NCSC[C@H](NC(=O)[C@@H](NC(=O)[C@H](CC(=O)O)NC(=O)CNC(=O)CNC(=O)[C@H](CCC(N)=O)NC(=O)[C@@H]1CCCN1C(=O)[C@@H]1CCCN1C(=O)[C@H](CCCNC(=N)N)NC(=O)[C@H](CCCNC(=N)N)NC(=O)[C@H](CCCNC(=N)N)NC(=O)[C@H](CCC(N)=O)NC(=O)[C@H](CCCNC(=N)N)NC(=O)[C@H](CCCNC(=N)N)NC(=O)[C@H](CCCCN)NC(=O)[C@H](CCCCN)NC(=O)[C@H](CCCNC(=N)N)NC(=O)CN)[C@@H](C)O)C(=O)N[C@@H](CCCNC(=N)N)C(=O)N[C@@H](CCC(N)=O)C(=O)N[C@H](C(=O)N[C@@H](Cc1ccccc1)C(=O)N[C@@H](CCCNC(=N)N)C(=O)N[C@@H](CO)C(=O)N[C@@H](Cc1c[nH]cn1)C(=O)O)[C@@H](C)O [linear S1PS5, GRKKRRQRRRPPQGGDTCAcmRQTFRSH] (H-GRKKRRQRRRPPQGGDTC(Acm)RQTFRSH-OH)
degradation rate ([2]; 25% FBS, 37°C, at 17-20 hours): 40%
